# Test results reported in paper PMC10794144, “A novel antibiotic class targeting the lipopolysaccharide transporter” (Nature, 2024).
# System: A. baumannii
# Test: MIC, broth microdilution in CAMHB supplemented with human serum, read at 100% growth inhibition
# Format: cell-based, Acinetobacter baumannii
# Conditions: Acinetobacter baumannii, ACC00535; CAMHB + 20% HS; read-out: MIC
# Method: MIC determinations were performed using the broth microdilution method and in line with CLSI guidelines M07 and M100 (refs. [37],[38]). Bacterial inocula were prepared by diluting a 0.5 McFarland suspension in CAMHB or lysogeny broth (LB) specifically for A. baylyi isolates. […] MIC values of all of the tested antibiotics were read as the lowest compound concentration inhibiting bacterial growth by naked eye or beyond which the OD600 ceased to decrease.
structure (smiles),measurement,value
CN1C(=O)[C@H](CCCCN)NC(=O)[C@H](CCCN)NCc2cccnc2Sc2c(Cl)ccc(Cl)c2CNC(=O)[C@@H]1Cc1c[nH]c2ccccc12 [RO7075573],MIC,0.12 µg/mL
